The results in this text go back to patent publication US8129121B2, “Regulation of lipid droplet formation by modulation of FIT1 and FIT2 and uses thereof” (Albert Einstein College of Medicine of Yeshiva University, priority 2007, dated 2012).

One data set concerns FIT2. Put plainly: Lentivirus shRNA knockdown of FIT2 in NIH-3T3 L1 cells, FIT2 mRNA and protein. The settings on record: adipocytes infected with lentivirus, vs control shRNA or no virus. It is filed as cell-based, mouse. The text has this: (§1) FIG. 4A-4C. shRNAi mediated knockdown of FIT2. NIH-3T3 or RAW246.7 cells were infected with lentivirus expressing shRNA sequence targeting murine FIT2 (FIT2shRNA), or control shRNA (contshRNA), or no lentivirus (control). (A) FIT2shRNA reduced lipid droplet formation during NIH-3T3 cell differentiation (days of differentiation are shown above image) as visualized by BODIPY493/503 staining. […] Expression of differentiation markers Apt and PPARgamma, were not changed in FIT2shRNA treated cells compared to controls.
Lentivirus shRNA. The following short hairpin RNA (shRNA) sequences (sense strand shown) were used to knockdown mouse FIT2 expression: shRNAcont, […] (SEQ ID NO:20); shRNAFIT2, (SEQ ID NO:21) […].
(§2) Double stranded shRNA DNAs were used to generate lentiviruses using the U6 promoter driven BLOCK-iT Lentivirus RNAi expression system (Invitrogen Corporation). Knockdown of human FIT2 in HEK293 cells was performed by stably transfection using pEntryU6 vector (Invitrogen Corp). NIH-3T3 L1 pre-adipocytes and HepG2 cells were infected with an MOI of 10-50.
(§3) shRNA suppression of FIT2 abolishes lipid droplet formation during adipogenesis. To provide a direct test if FIT proteins are essential for the formation of lipid droplets, knockdown of FIT expression was sought in established cellular models of lipid droplet formation. […]

The next data set deals with NIH-3T3 L1 adipocytes. The data set can be described thus: Lentivirus shRNA knockdown of FIT2 in NIH-3T3 L1 cells during adipogenesis: lipid droplets, differentiation markers, TG biosynthesis, lipolysis. It is filed as cell-based, mouse.
Source text: as §1
FIG. 11A-11B. Triglyceride biosynthesis and lipolysis assays in FIT2 knockdown cells. (A) Triglyceride synthesis measurements were performed at each time point during differentiation using ^14C glycerol and TLC analysis of triglyceride levels quantified by PhosphorImager analysis. Each time point contained 3 independent samples for each condition, and represented as mean±std, p<0.001. […] (B) Lipolysis assays performed on cell lysates from NIH 3T3-L1 cells at day 4 and day 6 of differentiation. No differences were observed between control and shRNAcont and FIT2shRNA adipocytes.
Cell culture. HEK293, and HeLa cells were grown in DMEM 10% FBS. NIH-3T3 L1 adipocytes were a kind gift from Philip Scherer and grow and differentiated by standard methods (24).
Triglyceride biosynthesis and DGAT assays. Cells in culture were incubated with 7.5 μCi/mL of 14C-glycerol (Specific activity: 125-180 mCi/mmol, NEN-Amersham) for the indicated times, followed by extraction with HIP and separation by TLC as referenced above. Radioactive triglycerides were quantified using PhosphorImager analysis and represented as a rate of triglyceride production using arbitrary units obtained from PhosphorImager analysis.
Lipase activity assay. Total cellular lipase activity was measured using the established method of Holm and Osterlund in Methods in Molecular Biology 1999; 109, p 109-121.
as §2, §3

On to “FIT2 shRNA: lentivirus-expressed short hairpin RNA targeting murine FIT2, SEQ ID NO:21 (CACCGCACCATGTTTGGTTTGTTGGCGAACCAACAAACCAAACATGGTGC)”, for which, in the data set on FIT2 (Northern blot), the “FIT2 mRNA” value was “significantly suppressed”. Moreover, the FIT2 protein entry in the data set with FIT2 (Western blot) was “significantly suppressed”. The Triglyceride biosynthesis result with NIH-3T3 L1 adipocytes (14C glycerol, TLC, knockdown adipocytes compared to controls) is recorded as “similar”. Further, the lipid droplets entry in the data set on NIH-3T3 L1 adipocytes (BODIPY493/503 staining, pre-adipocytes (day 0) and mature adipocytes (day 4 to 9)) is “almost complete absence of lipid droplets”. For the same substance, the “expression of PPARgamma and AP2 (markers of adipocyte differentiation)” value with NIH-3T3 L1 adipocytes (FIT2 suppressed cells, Northern blot) is listed as “not changed”. Also, the triglyceride lipase activities result with NIH-3T3 L1 adipocytes (cell lysates at day 4 and day 6 of differentiation, compared to controls) is on record as “similar”.
